In patent EP0206322B1, “N-(2-carboxy)-ethyl-1,8-naphthalene imide and its salts for the treatment of diabetic retinopathies and neuropathies” (I.P.A. INTERNATIONAL PHARMACEUTICAL ASSOCIATED S.r.l., priority 1985, dated 1986):
Where two headings read alike, the source gives them in different places.

How the values were obtained:
[1] = test system: platelets of rabbit blood; test: In vitro platelet antiaggregant activity, collagen-induced aggregation; type: cell-based; conditions: for inhibition at 625 µM / inhibition at 1250 µM: Oryctolagus cuniculus, Platelet, read-out: Percent inhibition; for inhibition at 625 µM: compound 0.625 mM; for inhibition at 1250 µM: compound 1.25 mM
Method: (§1) The platelet antiaggregant activity of IPA 955 has been determined in comparison with a known antiaggregant activity, Ticlopidine, on the platelets of rabbit blood added with 3.6% sodium citrate in an amount of 10%. The blood was centrifuged for 15' at 1200 rpm and the surnatant was recovered for its platelet content. The residue has been further centrifuged with the aim of obtaining a "poor" plasma (3000 - 3500 rpm). The plasma platelets obtained after the first centrifugation were suitably diluted with the poor plasma, counted and the rich plasma (first centrifugation) was diluted according to the platelet count so as to obtain a final concentration of platelets of 25.10⁴ ÷ 30.10⁴/mm³.
(§2) The aggregation was induced by the addition of ADP and collagene at the specified concentrations.

[2] = Acute toxicity in the mouse (LD50 by Litchfield and Wilcoxon method); type: in vivo; conditions: oral and intravenous administration, at the tested doses
Method: The acute toxicity of IPA 955 has been studied in the mouse after oral and intravenous administration. The LD₅₀ values were calculated according to the Litchfield and Wilcoxon method (J. Pharm. Exp. Therap. 1949, 96, 99).

aldose-reductase = target: T1, aldose-reductase (Rattus norvegicus, UniProt P07943); test: Aldose-reductase inhibitory activity (rat lens homogenate supernatant, method of Varma and Kinoshita); type: biochemical, rats
T1 construct: The surnatant, after centrifugation at 3000 x g for 15 minutes, has been used; from tissue; host or cells: crystalline lenses of adult male rats (homogenate supernatant)
Method: Crystallin lenses of adult male rats have been homogenized in 0.1 M phosphate buffer pH 6.2. The surnatant, after centrifugation at 3000 x g for 15 minutes, has been used. The surnatant contained 13 mg/ml of proteins. Quercitrin (Fluka, Buchs) 1 mM dissolved in DMSO: H2O (1:10) has been used. The aldose-reductase activity has been tested by the method described by […] J.H. Kinoshita (Biochem. Pharmacol. 25, 2505, 1976) using 1 ml of final volume containing NAPDH (20 μl of a 10 mM solution), DL glyceraldheide 1.5 x 10^-3 M final, […] (25 μl of a 1 M solution) and 150 μl of a surnatant. The blank contained the same substances, except the surnatant.

[3] = test system: platelets of rabbit blood; test: In vitro platelet antiaggregant activity, ADP-induced aggregation; type: cell-based
Method: as §1, §2

[4] = ADP conc. 5.0 μM, compound 1.25 mM
[5] = ADP conc. 6.25 μM, compound 0.625 mM
[6] = ADP conc. 6.25 μM, compound 1.25 mM
[7] = ADP conc. 8.3 μM, compound 1.25 mM
[8] = ADP conc. 12.5 μM, compound 0.625 mM
[9] = ADP conc. 12.5 μM, compound 1.25 mM

Row | SMILES | inhibition at 625 µM ([1]; collagene 25 μg/ml) [%] | inhibition at 1250 µM ([1]; collagene 25 μg/ml) [%] | inhibition at 1250 µM ([1]; collagene 50 μg/ml) [%] | platelet antiaggregation activity (percent inhibition) ([1]; collagen induced aggregation, summary over the tables) [%] | acute toxicity [2] | activity relative to quercitrin (times higher) (aldose-reductase; ratio of Ki values against quercitrin) | Ki (aldose-reductase; supernatant of rat lens homogenate, DL glyceraldheide 1.5 x 10⁻³ M, NADPH, read-out: Ki) [µM] | Percent inhibition [3, 4] [%] | Percent inhibition [3, 5] [%] | Percent inhibition [3, 6] [%] | Percent inhibition [3, 7] [%] | Percent inhibition [3, 8] [%] | Percent inhibition [3, 9] [%] | Percent inhibition ([3]; ADP-induced aggregation, summary over the tables) | Ki (aldose-reductase) [µM]
1 | O=C(O)CCN1C(=O)c2cccc3cccc(c23)C1=O [IPA 955, N-(2-carboxy)-ethyl-1,8-naphthaleneimide] | 41 | 48.8 | 38.7 | 40 to 50 | practically devoid of toxicity | about 6 times | 1.04 | 14.6 | 8.4 | 25.66 | 16.3 | 23.17 | 16.85 | about 20% | –
2 | Clc1ccccc1CN1CCc2sccc2C1 [TICLOPIDINE, Ticlopidine, reference compound] | 45.3 | 66.5 | 59.6 | – | – | – | – | 24.4 | 9.7 | 20.5 | 19.75 | 15.66 | 20.02 | – | –
3 | C[C@@H]1O[C@@H](Oc2c(-c3ccc(O)c(O)c3)oc3cc(O)cc(O)c3c2=O)[C@H](O)[C@H](O)[C@H]1O [quercitrin, reference compound] | – | – | – | – | – | – | – | – | – | – | – | – | – | – | 6
